Target: T1, human DGAT1 expressed in insect cell membranes (Homo sapiens, UniProt O75907)
T1 construct: made in house; host or cells: sf9 insect cells (baculovirus), membrane fraction
T1 sequence (O75907 1-488): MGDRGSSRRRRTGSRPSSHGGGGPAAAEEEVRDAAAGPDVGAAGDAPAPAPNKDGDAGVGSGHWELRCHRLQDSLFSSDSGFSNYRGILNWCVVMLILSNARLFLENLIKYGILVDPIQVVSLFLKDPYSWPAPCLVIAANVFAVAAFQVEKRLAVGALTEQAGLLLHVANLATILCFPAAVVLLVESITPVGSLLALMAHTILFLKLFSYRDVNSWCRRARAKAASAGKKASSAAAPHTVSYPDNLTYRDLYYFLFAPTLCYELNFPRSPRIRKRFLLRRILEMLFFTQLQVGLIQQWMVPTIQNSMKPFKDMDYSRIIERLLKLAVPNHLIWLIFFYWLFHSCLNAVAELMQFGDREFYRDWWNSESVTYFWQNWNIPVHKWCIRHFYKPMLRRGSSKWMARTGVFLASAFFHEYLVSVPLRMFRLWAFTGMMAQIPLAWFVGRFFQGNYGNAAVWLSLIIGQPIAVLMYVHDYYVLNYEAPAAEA
Assay: Human Enzyme Assay: in vitro DGAT1 inhibition, 14C oleoyl coenzyme A incorporation into triolein
Type: biochemical
Settings: acetone concentration not stated for these values; usually a mean of 2 measurements; read-out: IC50
Protocol: Briefly, sf9 cells were infected with recombinant baculovirus containing human DGAT1 coding sequences and harvested after 48 h. […] The membrane fraction at the interphase was collected, washed, and stored in liquid nitrogen.
The reaction was started by adding ^14C oleoyl coenzyme A (30 μM final concentration) and incubated at room temperature for 30 minutes. The reaction was stopped by adding 200 μl 2-propanol:heptane 7:1. Radioactive triolein product was separated into the organic phase by adding 300 μl heptane and 100 μl 0.1 M carbonate buffer pH 9.5. DGAT1 activity was quantified by counting aliquots of the upper heptane layer by liquid scintillography.
Stated figures are usually a mean of a number of measurements (usually 2 measurements) according to standard practice.

First: Cc1nc(C)c(-c2ccc(O[C@H]3CC[C@H](C(=O)O)CC3)c(Cl)c2)nc1C(N)=O [Example 26, (1r,4r)-4-(4-(6-Carbamoyl-3,5-dimethylpyrazin-2-yl)-2-chlorophenoxy)cyclohexanecarboxylic acid]
Second: Cc1nc(C)c(-c2ccc(N3CCC[C@@H](C(=O)O)C3)cc2)nc1C(N)=O [Example 35]
The IC50 of the first is 1.6-fold higher: 1500 nM for the first, 960 nM for the second.

Compared with `Cc1cc(-c2ccc(CC(=O)O)cc2)ccc1-c1nc(C(N)=O)c(C)nc1C` [Example 62], `Cc1nc(C)c(-c2ccc(N3CCC(CC(=O)O)C3)cc2)nc1C(N)=O` (stereo not shown) [Example 40, 2-(1-(4-(6-Carbamoyl-3,5-dimethylpyrazin-2-yl)phenyl)pyrrolidin-3-yl)acetic acid] is 6.7-fold lower in IC50: 8000 nM for the first, 1200 nM for the second.

Source: patent US7994179B2, “Carbamoyl compounds as DGAT1 inhibitors 190” (AstraZeneca AB, priority 2007, dated 2011)
